Patent US9067896B2, “Crystalline forms of 3-(2,6-dichloro-3,5-dimethoxy-phenyl)-1-{6-[4-(4-ethyl-piperazin-1-yl) -phenylamino]-pyrimidin-4-yl}-1-methyl-urea and salts thereof” (Novartis AG, priority 2009, dated 2015)
Structures can show the parent of a compound that is named as a salt. Each block holds one molecule with its values, some of them ahead of it.

Assays:
Format in all cases: physicochemical
[1] = Determination of solubility (equilibration in solvent, filtrate by HPLC); details: for Solubility: initial solubility test
Procedure: Excess free base (free base of Formula I), its phosphate salt (the monophosphoric acid salt of the free base), or another acid salt was equilibrated in solvents for 1 day at 25±0.5° C. The resultant slurry was filtered and the filtrate used for solubility determination by HPLC.
Solubility of the monohydrate of the anhydrous and monohydrate free base was measured in various aqueous media (e.g., pH 6.8 buffer, pH 4.5 buffer, pH 1 buffer), including simulated and actual human fluids.
The human fluids were collected from 12 human subjects.
Solubility studies of the phosphate salt were undertaken in aqueous media and in human fluids at 24 hours.

[2] = Intrinsic dissolution rate; details: 37° C., disc 50 rpm, 290.2 nm
Procedure: The intrinsic dissolution rate measurements were carried out in 0.5 cm^2 VanKel punch and die assemblies at a pellet pressure of 2000 pounds. […]
The intrinsic dissolution rate was determined for the phosphate salt in water, pH=6.8 and 0.1N HCl, and for the free base monohydrate in pH=6.8, 4.5 and 0.1N HCl. The measurements were carried out on a VanKel instrument using a Cary UV/VIS spectrophotometer (Table 2).

[3] = Hygroscopicity from DVS sorption/desorption isotherms; details: for weight gain due to water absorption (DVS): listed as hydrochloride salt
Procedure: Hygroscopicity was measured from sorption/desorption isotherms using Surface Measurement System DVS-1 at 25±0.5° C. Samples were evaluated at various humidities including 75%, 85%, and 95%.
The free base (anhydrous and monohydrate) and its phosphate salt (form A) were subjected to sorption and desorption cycle using a VTI brand instrument. The solids were collected after the experiment and analyzed. […] The DVS plots are shown in FIGS. 4A (free base, anhydrous), 4B (phosphate salt (form A) and 4C (free base, monohydrate). The maximum water uptake for the phosphate salt (form A) was less than 2% (i.e. 0.7%) at 25° C. up to 95% relative humidity (rh) (see Table 9). The maximum water uptake for the monohydrate was less than 1.4% at 25° C. up to 95% RH. The monohydrate with an approximate water content of 3% could not be completely dried during the experiment but the water that could be removed was reversibly reabsorbed. The plateau of existence of the monohydrate form is found to be within 10% and 95% RH with a slight hysteresis at the second desorption cycle.

- Solubility in mg/ml after 24 h ([1]; Fasted State Simulated Intestinal Fluid (FaSSIF), listed as Monohydrate Free Base): 0.003 mg/mL
- Solubility in mg/ml after 24 h ([1]; Fed State Simulated Intestinal Fluid (FeSSIF), listed as Monohydrate Free Base): 0.459 mg/mL
- Solubility in mg/ml after 24 h ([1]; HIF, fed, listed as Monohydrate Free Base): 0.040 mg/mL
- Solubility in mg/ml after 24 h ([1]; Human gastric fluid (HGF), listed as Monohydrate Free Base): 0.002 mg/mL
- Solubility in mg/ml after 24 h ([1]; Human intestinal fluid (HIF) fasted, listed as Monohydrate Free Base): 0.019 mg/mL
- Solubility in mg/ml after 24 h ([1]; Simulated Gastric Fluid (SGF), listed as Monohydrate Free Base): 0.020 mg/mL
- Solubility in mg/ml after 24 h ([1]; pH 1 HCl, listed as Monohydrate Free Base): 0.103 mg/mL
- Solubility in mg/ml after 24 h ([1]; ph 4.5 Acetate, listed as Monohydrate Free Base): 0.054 mg/mL
- Intrinsic DR value ([2]; HCl 0.1N): 0.3132 mg/min/cm^2
- Intrinsic DR value ([2]; pH = 4.5): 0.0001 mg/min/cm^2
- Intrinsic DR value ([2]; pH = 6.8): 0.0026 mg/min/cm^2
- maximum water uptake ([3]; 25° C. up to 95% relative humidity): less than 1.4%
Molecule: CCN1CCN(c2ccc(Nc3cc(N(C)C(=O)Nc4c(Cl)c(OC)cc(OC)c4Cl)ncn3)cc2)CC1 [Free base (monohydrate)]

- Solubility in mg/ml after 24 h ([1]; Fasted State Simulated Intestinal Fluid (FaSSIF)): 0.003 mg/mL
- Solubility in mg/ml after 24 h ([1]; Fed State Simulated Intestinal Fluid (FeSSIF)): 0.248 mg/mL
- Solubility in mg/ml after 24 h ([1]; HIF, fed): 0.0109 mg/mL
- Solubility in mg/ml after 24 h ([1]; Human gastric fluid (HGF)): 0.0348 mg/mL
- Solubility in mg/ml after 24 h ([1]; Human intestinal fluid (HIF) fasted): 0.0154 mg/mL
- Solubility in mg/ml after 24 h ([1]; Simulated Gastric Fluid (SGF)): 0.073 mg/mL
- Solubility in mg/ml after 24 h ([1]; pH 1 HCl): 0.075 mg/mL
- Solubility in mg/ml after 24 h ([1]; ph 4.5 Acetate): 0.822 mg/mL
- weight gain due to water absorption (DVS) ([3]; 75% RH): about 4.1%
- weight gain due to water absorption (DVS) ([3]; 95% RH): about 16.9%
- hygroscopicity (in words) ([3]; listed as hydrochloride): hygroscopic
Molecule: CCN1CCN(c2ccc(Nc3cc(N(C)C(=O)Nc4c(Cl)c(OC)cc(OC)c4Cl)ncn3)cc2)CC1 [Hydrochloride Salt]

- weight gain by DVS ([3]; over the humidities tested (75%, 85%, 95% RH)): about 10%
Molecule: Malonate

Molecule: Methanesulfonate
- Solubility ([1]; Water): 0.87 mg/mL
- Solubility ([1]; pH3 Buffer): 0.003 mg/mL
